Experimental data taken from ChEMBL document CHEMBL4715697, “Synthesis and biological activity of benzamide DNA minor groove binders” (2016).

Tests used:
Assay type in all cases: functional
[1] = system: SK-MEL-28; test: Growth inhibition of human SK-MEL-28 cells assessed as cell growth at 100 uM incubated for 48 hrs by sulforhodamine B assay relative to control; conditions: read-out: Activity
[2] = system: DU-145; test: Growth inhibition of human DU-145 cells assessed as cell growth at 1 uM incubated for 48 hrs by sulforhodamine B assay relative to control; conditions: read-out: Activity
[3] = system: MDA-MB-435; test: Growth inhibition of human MDA-MB-435 cells assessed as cell growth at 0.01 uM incubated for 48 hrs by sulforhodamine B assay relative to control; conditions: read-out: Activity
[4] = system: NCI-H522; test: Growth inhibition of human NCI-H522 cells assessed as cell growth at 0.01 uM incubated for 48 hrs by sulforhodamine B assay relative to control; conditions: read-out: Activity
[5] = system: Hs-578T; test: Growth inhibition of human Hs-578T cells assessed as cell growth at 0.01 uM incubated for 48 hrs by sulforhodamine B assay relative to control; conditions: read-out: Activity
[6] = system: SK-OV-3; test: Growth inhibition of human SK-OV-3 cells assessed as cell growth at 0.1 uM incubated for 48 hrs by sulforhodamine B assay relative to control; conditions: read-out: Activity
[7] = system: HL-60(TB); test: Growth inhibition of human HL-60(TB) cells assessed as cell growth at 0.01 uM incubated for 48 hrs by sulforhodamine B assay relative to control; conditions: read-out: Activity
[8] = system: SK-MEL-5; test: Growth inhibition of human SK-MEL-5 cells incubated for 48 hrs by sulforhodamine B assay
[9] = system: SNB-75; test: Growth inhibition of human SNB-75 cells assessed as cell growth at 0.1 uM incubated for 48 hrs by sulforhodamine B assay relative to control; conditions: read-out: Activity
[10] = system: RPMI-8226; test: Growth inhibition of human RPMI-8226 cells incubated for 48 hrs by sulforhodamine B assay
[11] = system: HL-60(TB); test: Growth inhibition of human HL-60(TB) cells assessed as cell growth at 100 uM incubated for 48 hrs by sulforhodamine B assay relative to control; conditions: read-out: Activity
[12] = system: OVCAR-5; test: Growth inhibition of human OVCAR-5 cells assessed as cell growth at 0.1 uM incubated for 48 hrs by sulforhodamine B assay relative to control; conditions: read-out: Activity
[13] = system: LOX IMVI; test: Growth inhibition of human LOX IMVI cells assessed as cell growth at 0.1 uM incubated for 48 hrs by sulforhodamine B assay relative to control; conditions: read-out: Activity
[14] = system: HT-29; test: Growth inhibition of human HT-29 cells assessed as cell growth at 1 uM incubated for 48 hrs by sulforhodamine B assay relative to control; conditions: read-out: Activity
[15] = system: SF-539; test: Growth inhibition of human SF-539 cells assessed as cell growth at 0.01 uM incubated for 48 hrs by sulforhodamine B assay relative to control; conditions: read-out: Activity
[16] = system: CAKI-1; test: Growth inhibition of human CAKI-1 cells assessed as cell growth at 0.1 uM incubated for 48 hrs by sulforhodamine B assay relative to control; conditions: read-out: Activity
[17] = system: BT-549; test: Growth inhibition of human BT-549 cells assessed as cell growth at 1 uM incubated for 48 hrs by sulforhodamine B assay relative to control; conditions: read-out: Activity
[18] = system: OVCAR-4; test: Growth inhibition of human OVCAR-4 cells assessed as cell growth at 0.1 uM incubated for 48 hrs by sulforhodamine B assay relative to control; conditions: read-out: Activity
[19] = system: Hs-578T; test: Growth inhibition of human Hs-578T cells assessed as cell growth at 0.1 uM incubated for 48 hrs by sulforhodamine B assay relative to control; conditions: read-out: Activity
[20] = system: NCI-H23; test: Growth inhibition of human NCI-H23 cells assessed as cell growth at 100 uM incubated for 48 hrs by sulforhodamine B assay relative to control; conditions: read-out: Activity
[21] = system: SN12C; test: Growth inhibition of human SN12C cells assessed as cell growth at 0.1 uM incubated for 48 hrs by sulforhodamine B assay relative to control; conditions: read-out: Activity
[22] = system: SK-OV-3; test: Growth inhibition of human SK-OV-3 cells incubated for 48 hrs by sulforhodamine B assay
[23] = system: KM12; test: Growth inhibition of human KM12 cells assessed as cell growth at 1 uM incubated for 48 hrs by sulforhodamine B assay relative to control; conditions: read-out: Activity
[24] = system: NCI-H322M; test: Growth inhibition of human NCI-H322M cells assessed as cell growth at 1 uM incubated for 48 hrs by sulforhodamine B assay relative to control; conditions: read-out: Activity
[25] = system: MDA-MB-468; test: Growth inhibition of human MDA-MB-468 cells incubated for 48 hrs by sulforhodamine B assay
[26] = system: CAKI-1; test: Growth inhibition of human CAKI-1 cells assessed as cell growth at 0.01 uM incubated for 48 hrs by sulforhodamine B assay relative to control; conditions: read-out: Activity
[27] = system: OVCAR-3; test: Growth inhibition of human OVCAR-3 cells assessed as cell growth at 1 uM incubated for 48 hrs by sulforhodamine B assay relative to control; conditions: read-out: Activity
[28] = system: NCI-H522; test: Growth inhibition of human NCI-H522 cells assessed as cell growth at 1 uM incubated for 48 hrs by sulforhodamine B assay relative to control; conditions: read-out: Activity
[29] = system: OVCAR-4; test: Growth inhibition of human OVCAR-4 cells assessed as cell growth at 100 uM incubated for 48 hrs by sulforhodamine B assay relative to control; conditions: read-out: Activity
[30] = system: HOP-62; test: Growth inhibition of human HOP-62 cells assessed as cell growth at 100 uM incubated for 48 hrs by sulforhodamine B assay relative to control; conditions: read-out: Activity
[31] = system: HCT-15; test: Growth inhibition of human HCT-15 cells incubated for 48 hrs by sulforhodamine B assay
[32] = system: SNB-75; test: Growth inhibition of human SNB-75 cells assessed as cell growth at 100 uM incubated for 48 hrs by sulforhodamine B assay relative to control; conditions: read-out: Activity
[33] = system: SNB-75; test: Growth inhibition of human SNB-75 cells incubated for 48 hrs by sulforhodamine B assay
[34] = system: 786-0; test: Growth inhibition of human 786-0 cells incubated for 48 hrs by sulforhodamine B assay
[35] = read-out: LC50 (the source's name)
[36] = read-out: pLC50 (the source's name) (converted)

CC(=O)Nc1cc(CCl)cc(NC(=O)c2ccc(C(=O)Nc3cccc(NC(=O)CCCN(C)C)c3)cc2)c1
growth at 100 µM [1]: 92%
growth at 1 µM [2]: 106%
growth at 0.01 µM [3]: 96%
growth at 0.01 µM [4]: 96%
growth at 0.01 µM [5]: 115%
growth at 0.1 µM [6]: 103%
growth at 0.01 µM [7]: 86%
GI50 ([8]; read-out: GI50): > 100 µM
LC50 ([8]; read-out: LC50): > 100 µM
TGI ([8]; read-out: TGI): > 100 µM
GI50 ([8]; read-out: pGI50 (converted)): > 100 µM
LC50 ([8]; read-out: pLC50 (converted)): > 100 µM
TGI ([8]; read-out: pTGI): > 100 µM
growth at 0.1 µM [9]: 77%
GI50 ([10]; read-out: GI50): > 100 µM
CC50 [10, 35]: > 100 µM
TGI ([10]; read-out: TGI): > 100 µM
GI50 ([10]; read-out: pGI50 (converted)): > 100 µM
CC50 [10, 36]: > 100 µM
TGI ([10]; read-out: pTGI): > 100 µM
growth at 100 µM [11]: 90%
growth at 0.1 µM [12]: 88%
growth at 0.1 µM [13]: 92%
growth at 1 µM [14]: 101%
growth at 0.01 µM [15]: 98%
growth at 0.1 µM [16]: 98%
growth at 1 µM [17]: 108%
growth at 0.1 µM [18]: 94%
growth at 0.1 µM [19]: 116%
growth at 100 µM [20]: 79%
growth at 0.1 µM [21]: 104%
GI50 ([22]; read-out: GI50): > 100 µM
LC50 (concentration killing 50% of cells) ([22]; read-out: LC50): > 100 µM
TGI ([22]; read-out: TGI): > 100 µM
GI50 ([22]; read-out: pGI50 (converted)): > 100 µM
LC50 (concentration killing 50% of cells) ([22]; read-out: pLC50 (converted)): > 100 µM
TGI ([22]; read-out: pTGI): > 100 µM
growth at 1 µM [23]: 107%
growth at 1 µM [24]: 100%
GI50 ([25]; read-out: GI50): > 100 µM
CC50 [25, 35]: > 100 µM
TGI ([25]; read-out: TGI): > 100 µM
GI50 ([25]; read-out: pGI50 (converted)): > 100 µM
CC50 [25, 36]: > 100 µM
TGI ([25]; read-out: pTGI): > 100 µM
growth at 0.01 µM [26]: 100%
growth at 1 µM [27]: 109%
growth at 1 µM [28]: 89%
growth at 100 µM [29]: 89%
growth at 100 µM [30]: 95%
GI50 ([31]; read-out: GI50): > 100 µM
CC50 [31, 35]: > 100 µM
TGI ([31]; read-out: TGI): > 100 µM
GI50 ([31]; read-out: pGI50 (converted)): > 100 µM
CC50 [31, 36]: > 100 µM
TGI ([31]; read-out: pTGI): > 100 µM
growth at 100 µM [32]: 97%
GI50 ([33]; read-out: GI50): > 100 µM
LC50 ([33]; read-out: LC50): > 100 µM
TGI ([33]; read-out: TGI): > 100 µM
GI50 ([33]; read-out: pGI50 (converted)): > 100 µM
LC50 ([33]; read-out: pLC50 (converted)): > 100 µM
TGI ([33]; read-out: pTGI): > 100 µM
GI50 ([34]; read-out: GI50): > 100 µM
LC50 ([34]; read-out: LC50): > 100 µM
TGI ([34]; read-out: TGI): > 100 µM
GI50 ([34]; read-out: pGI50 (converted)): > 100 µM
LC50 ([34]; read-out: pLC50 (converted)): > 100 µM
TGI ([34]; read-out: pTGI): > 100 µM
